In ChEMBL document CHEMBL1123357, “Chemotherapeutic approaches to the treatment of the acquired immune deficiency syndrome (AIDS)” (1986):
Values after ≈ are worked out from the molar mass of the structure shown.

Tests used:
ATH-8 cell line [1] = experiment: Minimum inhibitory concentration of the compound, achieving a complete protection of ATH8 cells against the cytopathic effect of HTLV-III / LAV […]; format: functional; conditions: Homo sapiens
ATH-8 cell line [2] = experiment: Selectivity index expressed as ratio of compound concentration required to reduce the growth of normal uninfected ATH8 cells by 50% to the compound concentration (MIC); format: functional, Homo sapiens

## O=C(O)C1=CC(=C(c2ccc(O)c(C(=O)O)c2)c2ccc(O)c(C(=O)O)c2)C=CC1=O [AURINTRICARBOXYLIC ACID]
ATH-8 cell line [1]
  MIC: 47 µM (≈ 19.9 µg/mL)
ATH-8 cell line [2]
  SI: >2.5

## Cc1cc(-c2ccc(/N=N/c3ccc4c(S(=O)(=O)[O-])cc(S(=O)(=O)[O-])c(N)c4c3O)c(C)c2)ccc1/N=N/c1ccc2c(S(=O)(=O)[O-])cc(S(=O)(=O)[O-])c(N)c2c1O.[Na+].[Na+].[Na+].[Na+] [EVANS BLUE]
ATH-8 cell line [1]
  MIC: 26 µM
ATH-8 cell line [2]
  SI: >4

## O=C(O)P(=O)(O)O [FOSCARNET]
ATH-8 cell line [1]
  MIC: 350 µM (≈ 44.1 µg/mL)
ATH-8 cell line [2]
  SI: >1

## NC(=O)c1ncn([C@@H]2O[C@H](CO)[C@@H](O)[C@H]2O)n1 [RIBAVIRIN]
ATH-8 cell line [1]
  MIC: > 400 µM
ATH-8 cell line [2]
  SI: <0.3

## Cc1ccc(C(=O)Nc2ccc(S(=O)(=O)O)c3cc(S(=O)(=O)O)cc(S(=O)(=O)O)c23)cc1NC(=O)c1cccc(NC(=O)Nc2cccc(C(=O)Nc3cc(C(=O)Nc4ccc(S(=O)(=O)O)c5cc(S(=O)(=O)O)cc(S(=O)(=O)O)c45)ccc3C)c2)c1 [SURAMIN]
ATH-8 cell line [1]
  MIC: 35 µM (≈ 45.4 µg/mL)
ATH-8 cell line [2]
  SI: 5

## Nc1ccn([C@H]2CC[C@@H](CO)O2)c(=O)n1 [ZALCITABINE]
ATH-8 cell line [1]
  MIC: 0.5 µM (≈ 0.106 µg/mL)
ATH-8 cell line [2]
  SI: 50

## Cc1cn([C@H]2C[C@H](N=[N+]=[N-])[C@@H](CO)O2)c(=O)[nH]c1=O [ZIDOVUDINE]
ATH-8 cell line [1]
  MIC: 1 µM (≈ 0.267 µg/mL)
ATH-8 cell line [2]
  SI: >50
